Assay results as given in ChEMBL document CHEMBL4270560, “Novel curcumin analogue hybrids: Synthesis and anticancer activity” (Eur J Med Chem, 2018).
Active and inactive are the calls of the source. The rule behind the calls is not given here.

Key:
SGC-7901 [1] = assay: Induction of mitochondrial membrane depolarization in human SGC7901 cells assessed as cells with mitochondrial membrane potential loss at 1200 nM after 48 hrs in presence of NAC by JC-1 staining based flow cytometric analysis (reference value: 1.65%); type: functional
SGC-7901 [2] = assay: Induction of apoptosis in human SGC7901 cells assessed as late apoptotic cells at 1000 nM after 48 hrs by Annexin V-FITC/propidium iodide staining based flow cytometric analysis (reference value: 1.73 to 2.85%); type: functional
SGC-7901 [3] = assay: Induction of mitochondrial membrane depolarization in human SGC7901 cells assessed as cells with intact mitochondrial membrane potential at 1000 nM after 48 hrs by JC-1 staining based flow cytometric analysis (reference value: 87.3%); type: functional
U-87 MG = assay: Antiproliferative activity against human U87 cells after 48 hrs by MTT assay; type: functional, cell-based, U-87MG ATCC
SGC-7901 [4] = assay: Induction of apoptosis in human SGC7901 cells assessed as late apoptotic cells at 800 nM after 48 hrs by Annexin V-FITC/propidium iodide staining based flow cytometric analysis (reference value: 1.73%); type: functional
SGC-7901 [5] = assay: Induction of mitochondrial membrane depolarization in human SGC7901 cells assessed as cells with mitochondrial membrane potential loss at 800 nM after 48 hrs by JC-1 staining based flow cytometric analysis (reference value: 9.29%); type: functional
SGC-7901 [6] = assay: Induction of apoptosis in human SGC7901 cells assessed as viable cells at 800 nM after 48 hrs by Annexin V-FITC/propidium iodide staining based flow cytometric analysis (reference value: 95.9%); type: functional; conditions: SGC-7901, 48 h, read-out: Activity
SGC-7901 [7] = assay: Induction of mitochondrial membrane potential loss in human SGC7901 cells after 48 hrs by JC-1 staining based flow cytometric analysis; type: functional, cell-based
SGC-7901 [8] = assay: Induction of apoptosis in human SGC7901 cells assessed as necrotic cells at 1000 nM after 48 hrs by Annexin V-FITC/propidium iodide staining based flow cytometric analysis (reference value: 0.052 to 0.304%); type: functional
SGC-7901 [9] = assay: Induction of apoptosis in human SGC7901 cells assessed as early apoptotic cells at 600 nM after 48 hrs by Annexin V-FITC/propidium iodide staining based flow cytometric analysis (reference value: 2.30%); type: functional
SGC-7901 [10] = assay: Induction of apoptosis in human SGC7901 cells assessed as early apoptotic cells at 800 nM after 48 hrs by Annexin V-FITC/propidium iodide staining based flow cytometric analysis (reference value: 2.30%); type: functional
SGC-7901 [11] = assay: Cell cycle arrest in human SGC7901 cells assessed as accumulation at G2 phase at 1200 nM after 48 hrs by propidium iodide staining based flow cytometric analysis (reference value: 18.77%); type: functional
SGC-7901 [12] = assay: Induction of apoptosis in human SGC7901 cells assessed as late apoptotic cells at 1000 nM after 48 hrs in presence of NAC by Annexin V-FITC/propidium iodide staining based flow cytometric analysis (reference value: 2.85%); type: functional
SGC-7901 [13] = assay: Induction of apoptosis in human SGC7901 cells assessed as early apoptotic cells at 1000 nM after 48 hrs in presence of NAC by Annexin V-FITC/propidium iodide staining based flow cytometric analysis (reference value: 0.851%); type: functional
SGC-7901 [14] = assay: Cell cycle arrest in human SGC7901 cells assessed as accumulation at G1 phase at 1200 nM after 48 hrs by propidium iodide staining based flow cytometric analysis (reference value: 47.93%); type: functional
SGC-7901 [15] = assay: Induction of mitochondrial membrane depolarization in human SGC7901 cells assessed as cells with mitochondrial membrane potential loss at 1000 nM after 48 hrs by JC-1 staining based flow cytometric analysis (reference value: 9.29%); type: functional
SGC-7901 [16] = assay: Induction of apoptosis in human SGC7901 cells after 48 hrs by Annexin V-FITC/propidium iodide staining based flow cytometric analysis; type: functional, cell-based
SGC-7901 [17] = assay: Induction of apoptosis in human SGC7901 cells assessed as early apoptotic cells at 1200 nM after 48 hrs in presence of NAC by Annexin V-FITC/propidium iodide staining based flow cytometric analysis (reference value: 0.851%); type: functional
SGC-7901 [18] = assay: Induction of mitochondrial membrane depolarization in human SGC7901 cells assessed as cells with intact mitochondrial membrane potential at 800 nM after 48 hrs by JC-1 staining based flow cytometric analysis (reference value: 87.3%); type: functional
SGC-7901 [19] = assay: Induction of apoptosis in human SGC7901 cells assessed as decrease in cyclin D1 level after 48 hrs by Western blot analysis; type: functional, cell-based
[20] = biological target: T1, Thioredoxin reductase 1, cytoplasmic (Homo sapiens) (UniProt Q16881); assay: (§1) Inhibition of TrxR in human SGC7901 cells; type: cell-based
T1 sequence (whole entry): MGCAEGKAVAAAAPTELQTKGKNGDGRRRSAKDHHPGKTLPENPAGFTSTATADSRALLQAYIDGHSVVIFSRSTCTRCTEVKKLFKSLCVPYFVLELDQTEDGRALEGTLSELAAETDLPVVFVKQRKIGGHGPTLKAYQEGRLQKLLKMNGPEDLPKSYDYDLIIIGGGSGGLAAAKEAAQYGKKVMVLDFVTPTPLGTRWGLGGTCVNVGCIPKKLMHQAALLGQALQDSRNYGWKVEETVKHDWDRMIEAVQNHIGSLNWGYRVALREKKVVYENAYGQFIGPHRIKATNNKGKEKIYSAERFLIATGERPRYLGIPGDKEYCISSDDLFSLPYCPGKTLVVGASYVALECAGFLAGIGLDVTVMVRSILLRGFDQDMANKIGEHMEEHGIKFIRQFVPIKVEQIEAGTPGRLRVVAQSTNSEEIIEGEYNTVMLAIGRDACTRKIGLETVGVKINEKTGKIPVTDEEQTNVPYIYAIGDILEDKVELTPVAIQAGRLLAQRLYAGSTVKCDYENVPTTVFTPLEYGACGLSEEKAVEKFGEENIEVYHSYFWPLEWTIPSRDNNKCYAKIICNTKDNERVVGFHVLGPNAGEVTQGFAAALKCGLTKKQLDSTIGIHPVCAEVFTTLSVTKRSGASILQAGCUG

[21] = biological target: T2, Thioredoxin reductase 1, cytoplasmic (Homo sapiens, UniProt Q16881); assay: as §1; type: cell-based
T2 sequence (Q16881 whole entry): T1 sequence (whole entry)

SGC-7901 [22] = assay: Cell cycle arrest in human SGC7901 cells assessed as accumulation at S phase at 1000 nM after 48 hrs by propidium iodide staining based flow cytometric analysis (reference value: 33.30%); type: functional
[23] = biological target: Thioredoxin reductase (Homo sapiens) (UniProt Q16881+Q9NNW7+Q86VQ6); assay: Inhibition of TrxR in human SGC7901 cells assessed as p38 phosphorylation at 600 to 1200 nM after 48 hrs by Western blot analysis; type: cell-based
SGC-7901 [24] = assay: Cell cycle arrest in human SGC7901 cells assessed as accumulation at G2 phase at 1000 nM after 48 hrs by propidium iodide staining based flow cytometric analysis (reference value: 18.77%); type: functional
SGC-7901 [25] = assay: Induction of apoptosis in human SGC7901 cells assessed as late apoptotic cells at 1200 nM after 48 hrs in presence of NAC by Annexin V-FITC/propidium iodide staining based flow cytometric analysis (reference value: 2.85%); type: functional
SGC-7901 [26] = assay: Induction of apoptosis in human SGC7901 cells assessed as necrotic cells at 600 nM after 48 hrs by Annexin V-FITC/propidium iodide staining based flow cytometric analysis (reference value: 0.052%); type: functional

`COc1cc(OC)c2c(=O)c(OCCCOc3ccccc3/C=C/C(=O)/C=C/c3ccccn3)c(-c3cc(OC)c(OC)c(OC)c3)oc2c1` was tested. Which Activity (SGC-7901 [1]) did it give?
Its Activity is 1.74%.

And the Activity (SGC-7901 [2])?
The Activity was 7.92 - 24.2%.

And the Activity (SGC-7901 [3])?
Its Activity is 56.3%.

And the IC50 (U-87 MG)?
Its IC50 is 3930 nM.

What about the Activity (SGC-7901 [4]) of the same molecule?
Its Activity is 8.3%.

What about the Activity (SGC-7901 [5]) of the same molecule?
The Activity was 21.2%.

What about the viability at 0.8 µM (SGC-7901 [6]) of the same molecule?
Its viability at 0.8 µM is 66.8%.

What about the Activity (SGC-7901 [7]) of the same molecule?
The Activity was “Dose-dependent effect”.

What about the Activity (SGC-7901 [8]) of the same molecule?
Its Activity is 0.256 - 1.04%.

And the Activity (SGC-7901 [9])?
The Activity was 5.79%.

And the Activity (SGC-7901 [10])?
Its Activity is 24.5%.

And the Activity (SGC-7901 [11])?
Its Activity is 17.95%.

What about the Activity (SGC-7901 [12]) of the same molecule?
Its Activity is 2.84%.

And the Activity (SGC-7901 [13])?
The Activity was 2.13%.

And the Activity (SGC-7901 [14])?
The Activity was 45.78%.

And the Activity (SGC-7901 [15])?
The Activity was 39.9%.

What about the Activity (SGC-7901 [16]) of the same molecule?
Its Activity is “Dose-dependent effect”.

What about the Activity (SGC-7901 [17]) of the same molecule?
Its Activity is 4.46%.

What about the Activity (SGC-7901 [18]) of the same molecule?
Its Activity is 75.7%.

What about the Activity (SGC-7901 [19]) of the same molecule?
Its Activity is “Dose-dependent effect”.

And the inhibition [20]?
Its inhibition is “Dose-dependent effect”.

What about the IC50 [21] of the same molecule?
Its IC50 is 783 nM.

And the Activity (SGC-7901 [22])?
Its Activity is 33.28%.

What about the inhibition [23] of the same molecule?
Its inhibition is “Active”.

What about the Activity (SGC-7901 [24]) of the same molecule?
Its Activity is 10.44%.

And the Activity (SGC-7901 [25])?
Its Activity is 21.2%.

What about the Activity (SGC-7901 [26]) of the same molecule?
The Activity was 0.132%.
